Experiment [1] concerns the target T1, Phosphatidylinositol 4,5-bisphosphate 3-kinase catalytic subunit delta isoform (Homo sapiens, UniProt O00329).
T1 sequence (O00329 whole entry): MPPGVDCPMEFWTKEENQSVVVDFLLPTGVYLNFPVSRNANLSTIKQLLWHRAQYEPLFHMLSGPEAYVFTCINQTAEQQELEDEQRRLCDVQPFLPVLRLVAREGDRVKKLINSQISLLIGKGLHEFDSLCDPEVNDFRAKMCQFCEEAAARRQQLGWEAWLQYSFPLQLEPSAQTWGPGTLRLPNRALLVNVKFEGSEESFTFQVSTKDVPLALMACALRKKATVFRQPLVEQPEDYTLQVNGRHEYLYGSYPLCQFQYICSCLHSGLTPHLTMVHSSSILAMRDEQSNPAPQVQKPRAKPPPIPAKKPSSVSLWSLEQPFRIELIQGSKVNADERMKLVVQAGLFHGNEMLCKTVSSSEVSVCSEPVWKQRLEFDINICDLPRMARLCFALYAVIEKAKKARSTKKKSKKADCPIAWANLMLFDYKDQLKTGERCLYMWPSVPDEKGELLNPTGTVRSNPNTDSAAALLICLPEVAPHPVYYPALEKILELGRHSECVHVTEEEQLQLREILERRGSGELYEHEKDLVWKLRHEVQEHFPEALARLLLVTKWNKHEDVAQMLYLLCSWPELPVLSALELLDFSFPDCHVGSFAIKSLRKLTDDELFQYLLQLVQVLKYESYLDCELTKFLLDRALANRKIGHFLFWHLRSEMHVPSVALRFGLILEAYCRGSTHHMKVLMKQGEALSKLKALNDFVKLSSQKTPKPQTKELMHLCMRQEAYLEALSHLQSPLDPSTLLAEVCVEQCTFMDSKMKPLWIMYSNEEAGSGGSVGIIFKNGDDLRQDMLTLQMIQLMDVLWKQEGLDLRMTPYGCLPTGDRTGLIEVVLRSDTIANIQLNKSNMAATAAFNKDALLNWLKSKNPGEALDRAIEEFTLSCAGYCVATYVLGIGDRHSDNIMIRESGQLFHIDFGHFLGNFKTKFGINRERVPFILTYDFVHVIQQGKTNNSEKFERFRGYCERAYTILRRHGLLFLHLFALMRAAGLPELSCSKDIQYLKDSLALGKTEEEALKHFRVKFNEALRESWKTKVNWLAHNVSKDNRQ
Nature of the experiment: Inhibition of PI3Kdelta (unknown origin).

Experiment [2] concerns the target Phosphatidylinositol 4,5-bisphosphate 3-kinase catalytic subunit alpha isoform (Homo sapiens, UniProt P42336). Nature of the experiment: Inhibition of PI3Kalpha (unknown origin).
In experiment [3] the target is Phosphatidylinositol 4,5-bisphosphate 3-kinase catalytic subunit beta isoform (Homo sapiens, UniProt P42338). The experiment in a line: Inhibition of PI3Kbeta (unknown origin).
Phosphatidylinositol 4,5-bisphosphate 3-kinase catalytic subunit beta isoform, sequence (P42338 whole entry, canonical isoform): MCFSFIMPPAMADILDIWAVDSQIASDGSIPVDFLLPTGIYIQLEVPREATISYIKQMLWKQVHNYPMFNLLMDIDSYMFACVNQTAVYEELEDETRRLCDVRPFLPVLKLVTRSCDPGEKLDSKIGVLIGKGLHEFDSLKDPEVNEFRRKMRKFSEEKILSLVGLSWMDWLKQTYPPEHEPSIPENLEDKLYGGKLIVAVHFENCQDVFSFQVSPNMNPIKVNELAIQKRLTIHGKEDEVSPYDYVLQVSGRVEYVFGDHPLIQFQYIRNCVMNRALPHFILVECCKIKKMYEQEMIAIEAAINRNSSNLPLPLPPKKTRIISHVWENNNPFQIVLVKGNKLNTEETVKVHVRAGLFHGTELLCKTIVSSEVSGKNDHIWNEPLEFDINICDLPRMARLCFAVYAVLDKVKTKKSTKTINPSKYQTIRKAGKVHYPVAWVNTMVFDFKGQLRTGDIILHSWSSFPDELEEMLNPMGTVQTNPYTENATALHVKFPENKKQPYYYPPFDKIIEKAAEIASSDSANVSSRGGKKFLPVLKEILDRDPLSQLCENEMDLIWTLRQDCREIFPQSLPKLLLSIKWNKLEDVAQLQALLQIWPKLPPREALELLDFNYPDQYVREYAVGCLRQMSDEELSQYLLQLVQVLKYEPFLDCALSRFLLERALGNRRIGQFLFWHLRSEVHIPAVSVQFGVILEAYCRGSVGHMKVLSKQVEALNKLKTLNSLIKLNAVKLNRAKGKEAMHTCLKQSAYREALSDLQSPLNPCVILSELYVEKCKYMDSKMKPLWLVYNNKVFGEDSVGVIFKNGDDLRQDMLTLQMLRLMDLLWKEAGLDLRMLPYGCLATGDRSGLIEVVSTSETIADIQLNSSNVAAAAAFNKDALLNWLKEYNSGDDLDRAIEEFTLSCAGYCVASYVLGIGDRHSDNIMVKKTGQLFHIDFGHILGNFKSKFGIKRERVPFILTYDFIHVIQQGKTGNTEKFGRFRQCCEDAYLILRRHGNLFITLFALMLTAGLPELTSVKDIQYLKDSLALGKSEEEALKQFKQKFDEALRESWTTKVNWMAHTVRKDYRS
The target of experiment [4] is Phosphatidylinositol 4,5-bisphosphate 3-kinase catalytic subunit gamma isoform (Homo sapiens, UniProt P48736). Nature of the experiment: Inhibition of PI3Kgamma (unknown origin).
Phosphatidylinositol 4,5-bisphosphate 3-kinase catalytic subunit gamma isoform, sequence (P48736 whole entry, canonical isoform): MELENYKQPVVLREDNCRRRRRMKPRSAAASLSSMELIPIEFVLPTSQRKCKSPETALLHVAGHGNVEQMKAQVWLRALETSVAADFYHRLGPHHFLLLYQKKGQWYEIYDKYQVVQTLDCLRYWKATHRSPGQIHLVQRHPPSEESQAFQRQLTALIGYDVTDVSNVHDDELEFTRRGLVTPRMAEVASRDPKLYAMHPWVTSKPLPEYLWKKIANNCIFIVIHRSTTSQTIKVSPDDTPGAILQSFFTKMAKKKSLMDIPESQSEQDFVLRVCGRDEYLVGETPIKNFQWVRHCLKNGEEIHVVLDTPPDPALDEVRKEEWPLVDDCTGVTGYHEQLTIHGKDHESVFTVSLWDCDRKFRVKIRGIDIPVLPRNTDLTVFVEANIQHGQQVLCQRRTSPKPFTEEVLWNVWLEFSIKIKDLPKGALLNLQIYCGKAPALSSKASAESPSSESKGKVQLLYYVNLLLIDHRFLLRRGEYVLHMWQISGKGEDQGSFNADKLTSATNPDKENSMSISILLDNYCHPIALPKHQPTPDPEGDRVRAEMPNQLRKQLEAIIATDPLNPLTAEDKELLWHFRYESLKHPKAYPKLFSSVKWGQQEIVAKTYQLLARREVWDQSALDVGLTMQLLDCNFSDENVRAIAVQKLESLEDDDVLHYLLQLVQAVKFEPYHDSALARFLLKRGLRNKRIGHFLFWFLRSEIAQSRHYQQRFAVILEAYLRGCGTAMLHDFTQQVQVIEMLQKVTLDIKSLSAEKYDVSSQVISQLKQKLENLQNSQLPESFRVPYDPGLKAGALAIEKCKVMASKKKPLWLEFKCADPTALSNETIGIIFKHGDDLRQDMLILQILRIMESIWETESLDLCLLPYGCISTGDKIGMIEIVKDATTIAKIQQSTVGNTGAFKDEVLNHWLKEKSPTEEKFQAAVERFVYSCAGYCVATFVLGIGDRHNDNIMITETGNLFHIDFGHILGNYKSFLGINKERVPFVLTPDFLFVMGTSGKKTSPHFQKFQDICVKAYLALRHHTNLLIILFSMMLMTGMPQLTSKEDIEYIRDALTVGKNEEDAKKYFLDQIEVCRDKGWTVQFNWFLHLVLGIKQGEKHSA
The subject of experiment [5] is U-87 MG. The experiment in a line: Antiproliferative activity against human U-87 MG cells. It is filed as functional, cell-based, U-87MG ATCC.
The test system of another experiment is HeLa. Nature of the experiment: Antiproliferative activity against human HeLa cells. It is filed as functional, cell-based.
The next experiment deals with HepG2. The experiment in a line: Antiproliferative activity against human HepG2 cells. It is filed as functional, cell-based.
The subject of another experiment is A549. The experiment in a line: Antiproliferative activity against human A549 cells. It is filed as functional, cell-based.
Another experiment has as its system HL-60. The experiment in a line: Antiproliferative activity against human HL-60 cells. It is filed as functional, cell-based.
The next experiment has as its system MCF7. The experiment in a line: Antiproliferative activity against human MCF7 cells. It counts as functional, cell-based.
Experiment [6] relates to U-87 MG. The experiment in a line: Inhibition of Akt phosphorylation at Ser473 in human U-87 MG cells at 1 to 5 uM by Western blotting analysis. It counts as cell-based. The note with it: dose 1-5 µM.
Experiment [7] relates to U-87 MG. Nature of the experiment: Inhibition of Akt expression in human U-87 MG cells at 1 uM by Western blotting analysis. It counts as cell-based.
The subject of experiment [8] is U-87 MG. The experiment in a line: Inhibition of Akt expression in human U-87 MG cells at 5 uM by Western blotting analysis. It is filed as cell-based.

Calls of active or inactive are those of the source. No cut-off for these calls is given here.

Phosphatidylinositol 4,5-bisphosphate 3-kinase catalytic subunit alpha isoform, sequence (P42336 whole entry, canonical isoform): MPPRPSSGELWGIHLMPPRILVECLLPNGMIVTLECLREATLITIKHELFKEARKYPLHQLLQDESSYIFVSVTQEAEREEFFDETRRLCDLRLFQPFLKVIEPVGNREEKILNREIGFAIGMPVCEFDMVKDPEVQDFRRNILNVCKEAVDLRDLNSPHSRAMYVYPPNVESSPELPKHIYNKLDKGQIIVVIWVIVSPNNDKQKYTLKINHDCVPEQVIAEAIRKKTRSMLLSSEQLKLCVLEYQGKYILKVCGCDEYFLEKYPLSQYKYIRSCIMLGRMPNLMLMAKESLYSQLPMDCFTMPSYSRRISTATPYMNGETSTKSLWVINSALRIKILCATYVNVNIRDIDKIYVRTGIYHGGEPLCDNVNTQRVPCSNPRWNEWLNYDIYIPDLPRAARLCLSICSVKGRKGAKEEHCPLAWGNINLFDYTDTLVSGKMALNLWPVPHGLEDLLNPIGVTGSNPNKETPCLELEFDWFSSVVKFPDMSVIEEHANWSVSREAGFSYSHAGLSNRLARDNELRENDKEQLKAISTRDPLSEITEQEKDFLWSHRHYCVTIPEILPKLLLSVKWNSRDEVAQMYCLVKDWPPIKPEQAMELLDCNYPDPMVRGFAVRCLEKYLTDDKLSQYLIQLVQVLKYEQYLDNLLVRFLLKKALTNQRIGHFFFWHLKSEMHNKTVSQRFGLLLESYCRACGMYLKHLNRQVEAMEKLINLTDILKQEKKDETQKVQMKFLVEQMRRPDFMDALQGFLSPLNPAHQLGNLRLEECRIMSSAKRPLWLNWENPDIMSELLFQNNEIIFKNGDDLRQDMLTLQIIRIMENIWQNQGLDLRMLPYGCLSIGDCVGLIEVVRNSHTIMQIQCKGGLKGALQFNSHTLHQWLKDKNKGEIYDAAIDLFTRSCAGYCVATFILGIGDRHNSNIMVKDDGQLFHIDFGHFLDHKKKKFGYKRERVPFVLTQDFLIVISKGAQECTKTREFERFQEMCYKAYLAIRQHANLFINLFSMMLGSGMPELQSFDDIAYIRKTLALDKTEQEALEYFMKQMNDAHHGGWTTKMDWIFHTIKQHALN

In the case of `O=S(=O)(Nc1cc(-c2ccc3nncc(N4CCCC4)c3c2)cnc1Cl)c1ccccc1`, the IC50 in experiment [1] stood at 0.87 nM; in experiment [2] it was 2.64 nM; in experiment [3] it was 5.41 nM; in [4], 5.97 nM.
In the case of `O=S(=O)(Nc1cc(-c2ccc3nncc(-n4ccnc4)c3c2)cnc1Cl)c1ccccc1`, the IC50 was 0.21 nM in [1]; 1.37 nM in experiment [2]; 2.39 nM in [3]; 4.02 nM in experiment [4]; 16700 nM in the experiment on U-87 MG [5]; over 50000 nM in the experiment on HeLa. The IC50 is over 16600 nM with HepG2, over 50000 nM in the experiment with A549, 2400 nM in the experiment on HL-60 and 39900 nM with MCF7.
`O=S(=O)(Nc1cc(-c2ccc3nncc(Nc4ccccc4)c3c2)cnc1Cl)c1ccccc1` came in with an IC50 in experiment [1] of 4.47 nM.
The same measure, in the same setting: the figure for `C[C@@H](Nc1cnnc2ccc(-c3cnc(Cl)c(NS(=O)(=O)c4ccccc4)c3)cc12)c1ccccc1` is 5.46 nM.
`Oc1cccc(-c2nc(N3CCOCC3)c3oc4ncccc4c3n2)c1` [PI-103]: the figures for the IC50 in the experiment with HeLa and in the experiment on HL-60 were 230 nM and 65.6 nM, respectively.
Regarding `CC1CCN(c2cnnc3ccc(-c4cnc(Cl)c(NS(=O)(=O)c5ccccc5)c4)cc23)CC1`, the half-maximal inhibitory concentration (IC50) in experiment [1] was determined as 0.32 nM; in experiment [2], 1.61 nM; in [3], 5.33 nM; in [4], 3.66 nM.
On to `O=S(=O)(Nc1cc(-c2ccc3nncc(N4CCOCC4)c3c2)cnc1Cl)c1ccccc1`, for which the half-maximal inhibitory concentration (IC50) was determined as 0.85 nM in experiment [1]; 1.55 nM in experiment [2]; 14.5 nM in experiment [3]; 4.36 nM in experiment [4]; 2020 nM with U-87 MG [5]; 7700 nM in the experiment with HeLa. Besides, the IC50 was 18300 nM in the experiment on HepG2, over 16600 nM in the experiment on A549, over 16600 nM with HL-60 and 13100 nM in the experiment on MCF7.
In turn, `C[C@H](Nc1cnnc2ccc(-c3cnc(Cl)c(NS(=O)(=O)c4ccccc4)c3)cc12)c1ccccc1` had an IC50 in experiment [1] of 27 nM.
As for `O=S(=O)(Nc1cc(-c2ccc3nnccc3c2)cnc1Cl)c1ccccc1`, half-maximal inhibition in experiment [1] (IC50) was put at 19.4 nM.
On the same count and under the same terms, in the case of `COc1cnnc2ccc(-c3cnc(Cl)c(NS(=O)(=O)c4ccccc4)c3)cc12` it was 1.1 nM.
Turning to `O=S(=O)(Nc1cc(-c2ccc3nncc(-c4ccncc4)c3c2)cnc1Cl)c1ccccc1`, the IC50 in experiment [1] was 0.36 nM; in [2], 0.71 nM; in experiment [3] it was 1.7 nM; in [4] it was 2.25 nM.
`O=S(=O)(Nc1cc(-c2ccc3nncc(Cl)c3c2)cnc1Cl)c1ccccc1` gave a half-inhibitory concentration (IC50) in [1] of 0.55 nM.
`CC(=O)Nc1ccc(Nc2cnnc3ccc(-c4cnc(Cl)c(NS(=O)(=O)c5ccccc5)c4)cc23)cc1` gave an IC50 in [1] of 3.3 nM.
`O=S(=O)(Nc1cc(-c2ccc3nncc(-c4ccc(N5CCOCC5)cc4)c3c2)cnc1Cl)c1ccccc1`: the 50% inhibitory concentration (IC50) in [1] amounted to 0.4 nM; in experiment [2] it was 0.711 nM; in experiment [3], 3.04 nM; in [4], 2.29 nM.
The compound `CCCCCCOc1cnnc2ccc(-c3cnc(Cl)c(NS(=O)(=O)c4ccccc4)c3)cc12` returned a half-inhibitory concentration (IC50) in experiment [1] of 215 nM.
Take `CCOc1cnnc2ccc(-c3cnc(Cl)c(NS(=O)(=O)c4ccccc4)c3)cc12`: the concentration for half-maximal inhibition (IC50) in experiment [1] turned out to be 0.4 nM; in experiment [2], 1.78 nM; in [3], 5.61 nM; in [4] it was 4.73 nM.
In turn, `O=S(=O)(Nc1cc(-c2ccc3nncc(O)c3c2)cnc1Cl)c1ccccc1` returned an IC50 in experiment [1] of 833 nM.
In the case of `O=S(=O)(Nc1cc(-c2ccc3nncc(-c4ccccc4)c3c2)cnc1Cl)c1ccccc1`, in [1], the midpoint of inhibition, the IC50, lay at 2.91 nM. Compared with the last compound, the IC50 is about 290-fold lower.
`O=S(=O)(Nc1cc(-c2ccc3nncc(N4CCNCC4)c3c2)cnc1Cl)c1ccccc1`: the IC50 in experiment [1] was 1.58 nM; in the experiment with U-87 MG [5] it was 589 nM; with HeLa it was over 16600 nM; in the experiment on HepG2, over 50000 nM; in the experiment on A549 it was over 50000 nM; with HL-60, over 16600 nM. Further, in the experiment on MCF7, the IC50 is over 50000 nM.
`O=S(=O)(Nc1cc(-c2ccc3nncc(-c4ccc(N5CCOCC5)nc4)c3c2)cnc1Cl)c1ccccc1`: the IC50 in [1] is 0.28 nM; in experiment [2], 0.709 nM; in [3], 1.54 nM; in experiment [4] it was 1.89 nM.
`COc1ncc(-c2ccc3nncc(Nc4ccccc4)c3c2)cc1NS(=O)(=O)c1ccccc1` returned a concentration for half-maximal inhibition (IC50) in [1] of 30.3 nM.
The same measure, in the same setting: the figure for `COc1ncc(-c2ccc3nncc(Nc4ccc(NC(C)=O)cc4)c3c2)cc1NS(=O)(=O)c1ccccc1` is 8.57 nM; for `COc1ncc(-c2ccc3nncc(Cl)c3c2)cc1NS(=O)(=O)c1ccccc1` it is 4.42 nM.
On to `O=S(=O)(Nc1cc(-c2ccc3nncc(N4CCCCC4)c3c2)cnc1Cl)c1ccccc1`, for which the IC50 in experiment [1] turned out to be 0.67 nM; in [2], 1.33 nM; in experiment [3] it was 4.6 nM; in [4], 3.19 nM.
Take `COc1ncc(-c2ccc3nncc(N4CCOCC4)c3c2)cc1NS(=O)(=O)c1ccccc1`: the midpoint of inhibition in experiment [1], the IC50, lay at 4.08 nM.
`COc1ccc(CNc2cnnc3ccc(-c4cnc(Cl)c(NS(=O)(=O)c5ccccc5)c4)cc23)cc1`: the IC50 in experiment [1] amounted to 1.02 nM.
As to `O=S(=O)(Nc1cc(-c2ccc3nncc(-c4cnc(N5CCOCC5)nc4)c3c2)cnc1Cl)c1ccccc1`, the IC50 in [1] turned out to be 0.65 nM; in experiment [2], 0.936 nM; in experiment [3], 4.72 nM; in experiment [4], 4.42 nM; in the experiment with U-87 MG [5] it was 264 nM; in the experiment on HeLa, 2040 nM. Further, the IC50 was over 16600 nM with HepG2, 10100 nM with A549, 1140 nM in the experiment on HL-60 and 31100 nM in the experiment on MCF7. Also, the inhibition result with U-87 MG [6] and in the experiment on U-87 MG [8] was “Active” each time. Besides, in the experiment on U-87 MG [7], the inhibition result is “inactive”.

Values taken from ChEMBL document CHEMBL4823294, “Discovery of cinnoline derivatives as potent PI3K inhibitors with antiproliferative activity” (Bioorg Med Chem Lett, 2021).
